In patent US20240360178A1, “MACROCYCLIC IMMUNOMODULATORS” (Bristol-Myers Squibb Company, priority 2021, published 2024):
Positions of bridges follow the written chain, without caps; N, C: chain ends. Non-standard residues stand in square brackets, D forms with d. Residues, ends and D or L forms follow the SMILES beside them. ξ: configuration not given here. Phe(4-COOH) = N[C@@H](Cc1ccc(C(=O)O)cc1)C(=O)O; Bip = N[C@@H](Cc1ccc(-c2ccccc2)cc1)C(=O)O; Phe(3-CN) = N#Cc1cccc(C[C@H](N)C(=O)O)c1; Phe(3-OMe) = COc1cccc(C[C@H](N)C(=O)O)c1; Phe(3-Me) = Cc1cccc(C[C@H](N)C(=O)O)c1; NMeF = CN[C@@H](Cc1ccccc1)C(=O)O; 4Pal = N[C@@H](Cc1ccncc1)C(=O)O; Cha = N[C@@H](CC1CCCCC1)C(=O)O; Thr(3ξ) = CC(O)[C@H](N)C(=O)O; NMeA = CN[C@@H](C)C(=O)O; Orn = NCCC[C@H](N)C(=O)O; Dab = NCC[C@H](N)C(=O)O; dAze = O=C(O)[C@H]1CCN1; ξV = CC(C)C(N)C(=O)O; ξS = NC(CO)C(=O)O; Sar = CNCC(=O)O

What follows are compounds tested against T1, human PD-1 (Jurkat-PD-1 cells) / PE-labeled human PD-L1-Ig (Homo sapiens, UniProt Q15116) (assay: Jurkat-PD-1 Cell Binding High-Content Screening Assay (CBA); Jurkat hPD1-PDL1 assay). Conditions: Jurkat cell line over-expressing human PD-1; PE-labeled PD-L1-Ig 20 nM final; compound incubated 2 hours at 37° C.; read-out: Jurkat HPD1-PDL1 IC50.
T1 construct: expressed in transfected cells; host or cells: Jurkat cell line over-expressing human PD-1
Procedure, shortened: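 Read-out is high-content imaging of PE fluorescence on PD-1-over-expressing Jurkat cells. Cells are first exposed to compound for 2 hours at 37° C in serum-containing DMEM, after which PE-labeled PD-L1-Ig is added at 20 nM final.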

T1 sequence (Q15116 25-288): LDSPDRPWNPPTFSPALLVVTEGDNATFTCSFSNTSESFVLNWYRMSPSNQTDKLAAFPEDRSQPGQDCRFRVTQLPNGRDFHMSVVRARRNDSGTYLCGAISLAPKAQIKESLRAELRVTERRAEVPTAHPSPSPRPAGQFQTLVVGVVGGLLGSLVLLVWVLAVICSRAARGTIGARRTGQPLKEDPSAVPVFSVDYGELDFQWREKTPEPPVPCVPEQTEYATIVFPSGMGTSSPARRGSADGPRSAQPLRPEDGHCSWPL

| SMILES | IC50 [µM] |
| --- | --- |
| COc1cccc(C[C@@H]2NC(=O)[C@H](CC(=O)O)NC(=O)[C@H](Cc3cccc(C#N)c3)NC(=O)[C@H](Cc3ccncc3)NC(=O)CSC[C@@H](C(=O)N[C@@H](C)C(N)=O)NC(=O)[C@H](CO)NC(=O)[C@H](C(C)C)NC(=O)[C@H](CC(C)C)NC(=O)[C@H](CC(N)=O)NC(=O)CN(C)C(=O)[C@H](C)N(C)C(=O)[C@H](C(C)C)NC(=O)[C@H](Cc3ccc(-c4ccccc4)cc3)NC(=O)[C@H](CC(C)C)NC2=O)c1 [Example 1392] ({CH2CO}-[4Pal][Phe(3-CN)]D[Phe(3-OMe)]L[Bip]V[NMeA][Sar]NLVSCA-NH2; thioether N-14) | 0.05 |
| CC(C)C[C@@H]1NC(=O)[C@H](Cc2c[nH]c3ccccc23)NC(=O)[C@H](CC(=O)O)NC(=O)[C@H](Cc2ccc(O)cc2)NC(=O)[C@H](Cc2ccccc2)NC(=O)CSC[C@@H](C(=O)NCC(N)=O)NC(=O)[C@H](CO)NC(=O)[C@H](C(C)C)NC(=O)[C@H](CC(C)C)NC(=O)[C@H](CCN)NC(=O)[C@H]2CCCN2C(=O)[C@H](C)N(C)C(=O)[C@H](C(C)C)NC(=O)[C@H](Cc2ccc(-c3ccccc3)cc2)NC1=O [Example 1399] ({CH2CO}-FYDWL[Bip]V[NMeA][dP][Dab]LVSCG-NH2; thioether N-14) | 0.07 |
| CC(C)C[C@@H]1NC(=O)CSC[C@@H](C(=O)NCC(N)=O)NC(=O)[C@H](CO)NC(=O)[C@H](C(C)C)NC(=O)[C@H](CC(C)C)NC(=O)[C@H](CC(N)=O)NC(=O)CN(C)C(=O)[C@H](C)N(C)C(=O)[C@H](C(C)C)NC(=O)[C@H](Cc2ccc(-c3ccccc3)cc2)NC(=O)[C@H](CC(C)C)NC(=O)[C@H](Cc2c[nH]c3ccccc23)NC(=O)[C@H](CC(=O)O)NC(=O)[C@H](Cc2ccc(O)cc2)NC1=O [Example 1141] ({CH2CO}-LYDWL[Bip]V[NMeA][Sar]NLVSCG-NH2; thioether N-14) | 0.61 |
| Cc1cccc(C[C@@H]2NC(=O)[C@H](CC(=O)O)NC(=O)[C@H](Cc3ccc(C(=O)O)cc3)NC(=O)[C@H](Cc3ccncc3)NC(=O)CSC[C@@H](C(=O)N[C@@H](C)C(N)=O)NC(=O)[C@H]([C@@H](C)O)NC(=O)[C@H](C(C)C)NC(=O)[C@H](CC3CCCCC3)NC(=O)[C@H](CCN)NC(=O)[C@H](Cc3ccccc3)N(C)C(=O)[C@H](CCCN)NC(=O)[C@H](CCC(=O)O)NC(=O)[C@H](Cc3ccc(-c4ccccc4)cc3)NC(=O)C(C(C)C)NC2=O)c1 (stereo partly shown) [Example 1444] ({CH2CO}-[4Pal][Phe(4-COOH)]D[Phe(3-Me)][ξV][Bip]E[Orn][NMeF][Dab][Cha]VTCA-NH2; thioether N-14) | 0.05 |
| COc1cccc(C[C@@H]2NC(=O)[C@H](Cc3ccccc3)NC(=O)CSC[C@@H](C(=O)N[C@@H](C)C(N)=O)NC(=O)[C@H](CO)NC(=O)[C@H](C(C)C)NC(=O)[C@H](CC(C)C)NC(=O)[C@H](CC(N)=O)NC(=O)[C@H]3CCCN3C(=O)[C@H](C)N(C)C(=O)[C@H](C(C)C)NC(=O)[C@H](Cc3ccc(-c4ccccc4)cc3)NC(=O)[C@H](CC(C)C)NC(=O)[C@H](Cc3c[nH]c4ccccc34)NC(=O)[C@H](CC(=O)O)NC2=O)c1 [Example 1055] ({CH2CO}-F[Phe(3-OMe)]DWL[Bip]V[NMeA][dP]NLVSCA-NH2; thioether N-14) | 0.12 |
| CC(C)C[C@@H]1NC(=O)[C@H](Cc2c[nH]c3ccccc23)NC(=O)[C@H](CC(=O)O)NC(=O)[C@H](Cc2ccc(O)cc2)NC(=O)[C@H](Cc2ccccc2)NC(=O)CSC[C@@H](C(=O)N[C@@H](C)C(N)=O)NC(=O)C(CO)NC(=O)[C@H](C(C)C)NC(=O)[C@H](CC(C)C)NC(=O)[C@H](CCN)NC(=O)[C@H]2CCCN2C(=O)[C@H](CCN)NC(=O)[C@H](C(C)C)NC(=O)[C@H](Cc2ccc(-c3ccccc3)cc2)NC1=O (stereo partly shown) [Example 1415] ({CH2CO}-FYDWL[Bip]V[Dab][dP][Dab]LV[ξS]CA-NH2; thioether N-14) | 0.08 |
| CC(C)C[C@@H]1NC(=O)[C@H](Cc2c[nH]c3ccccc23)NC(=O)[C@H](CC(=O)O)NC(=O)[C@H](Cc2ccc(O)cc2)NC(=O)[C@H](Cc2ccccc2)NC(=O)CSC[C@@H](C(=O)N[C@@H](C)C(N)=O)NC(=O)[C@H](CO)NC(=O)[C@H](C(C)C)NC(=O)[C@H](CC(C)C)NC(=O)[C@H](CCCCN)NC(=O)CN(C)C(=O)[C@H](C)N(C)C(=O)[C@H](CCC(=O)O)NC(=O)[C@H](Cc2ccc(-c3ccccc3)cc2)NC1=O [Example 1134] ({CH2CO}-FYDWL[Bip]E[NMeA][Sar]KLVSCA-NH2; thioether N-14) | 0.54 |
| CC(C)C[C@@H]1NC(=O)[C@H](CCCNC(=N)N)NC(=O)[C@H](Cc2ccccc2)N(C)C(=O)[C@H](C)N(C)C(=O)[C@H](CCC(=O)O)NC(=O)[C@H](Cc2ccc(-c3ccccc3)cc2)NC(=O)[C@H](C(C)C)NC(=O)[C@H](Cc2c[nH]c3ccccc23)NC(=O)[C@H](CC(=O)O)NC(=O)[C@H](Cc2ccc(O)cc2)NC(=O)[C@H](CC(N)=O)NC(=O)CSC[C@@H](C(=O)N[C@@H](C)C(N)=O)NC(=O)[C@H]([C@@H](C)O)NC(=O)[C@H](C(C)C)NC1=O [Example 1379] ({CH2CO}-NYDWV[Bip]E[NMeA][NMeF]RLVTCA-NH2; thioether N-14) | 0.04 |
| CC(C)C[C@@H]1NC(=O)[C@H](CCCNC(=N)N)NC(=O)[C@H](Cc2ccccc2)N(C)C(=O)[C@H](C)N(C)C(=O)[C@H](CCCNC(=N)N)NC(=O)[C@H](Cc2ccc(-c3ccccc3)cc2)NC(=O)[C@H](C(C)C)NC(=O)[C@H](Cc2c[nH]c3ccccc23)NC(=O)[C@H](CC(=O)O)NC(=O)[C@H](Cc2ccc(O)cc2)NC(=O)[C@H](Cc2ccccc2)NC(=O)CSC[C@@H](C(=O)N[C@H](C(N)=O)C(C)O)NC(=O)[C@H](CO)NC(=O)[C@H](C(C)C)NC1=O (stereo partly shown) [Example 1063] ({CH2CO}-FYDWV[Bip]R[NMeA][NMeF]RLVSC[Thr(3ξ)]-NH2; thioether N-14) | 0.16 |
| CC(C)C[C@@H]1NC(=O)[C@H](Cc2c[nH]c3ccccc23)NC(=O)[C@H](CC(=O)O)NC(=O)[C@H](Cc2ccc(O)cc2)NC(=O)[C@H](Cc2ccccc2)NC(=O)CSC[C@@H](C(=O)NCC(N)=O)NC(=O)[C@H](CO)NC(=O)[C@H](C(C)C)NC(=O)[C@H](CC(C)C)NC(=O)[C@H](CC(N)=O)NC(=O)[C@H](Cc2ccccc2)N(C)C(=O)[C@H](C)N(C)C(=O)[C@H](C(C)C)NC(=O)[C@H](Cc2ccc(-c3ccccc3)cc2)NC1=O [Example 1205] ({CH2CO}-FYDWL[Bip]V[NMeA][NMeF]NLVSCG-NH2; thioether N-14) | 0.44 |
| CC(C)C[C@@H]1NC(=O)[C@H](Cc2c[nH]c3ccccc23)NC(=O)[C@H](CC(=O)O)NC(=O)[C@H](Cc2ccc(O)cc2)NC(=O)[C@H](Cc2ccccc2)NC(=O)CSC[C@@H](C(=O)N[C@@H](C)C(N)=O)NC(=O)[C@H](CO)NC(=O)[C@H](C(C)C)NC(=O)[C@H](CC(C)C)NC(=O)[C@H](CC(N)=O)NC(=O)[C@H]2CCN2C(=O)[C@H](C)N(C)C(=O)[C@H](C(C)C)NC(=O)[C@H](Cc2ccc(-c3ccccc3)cc2)NC1=O [Example 1021] ({CH2CO}-FYDWL[Bip]V[NMeA][dAze]NLVSCA-NH2; thioether N-14) | 0.04 |
| CC(C)C[C@@H]1NC(=O)[C@H](C(C)C)NC(=O)[C@H](Cc2ccccc2)N(C)C(=O)[C@H](C)N(C)C(=O)[C@H](CCCNC(=N)N)NC(=O)[C@H](Cc2ccc(-c3ccccc3)cc2)NC(=O)[C@H](C(C)C)NC(=O)[C@H](Cc2c[nH]c3ccccc23)NC(=O)[C@H](CC(=O)O)NC(=O)[C@H](Cc2ccc(O)cc2)NC(=O)[C@H](Cc2ccccc2)NC(=O)CSC[C@@H](C(=O)NCC(N)=O)NC(=O)[C@H](CO)NC(=O)[C@H](C(C)C)NC1=O [Example 1239] ({CH2CO}-FYDWV[Bip]R[NMeA][NMeF]VLVSCG-NH2; thioether N-14) | 0.11 |
| CC(C)C[C@@H]1NC(=O)[C@H](Cc2c[nH]c3ccccc23)NC(=O)[C@H](CC(=O)O)NC(=O)[C@H](Cc2ccc(O)cc2)NC(=O)[C@H](Cc2ccccc2)NC(=O)CSC[C@@H](C(=O)N[C@@H](C)C(N)=O)NC(=O)[C@H](CO)NC(=O)[C@H](C(C)C)NC(=O)[C@H](CC(C)C)NC(=O)[C@H](CC(N)=O)NC(=O)[C@H](Cc2ccccc2)N(C)C(=O)[C@H](C)N(C)C(=O)[C@H](C(C)C)NC(=O)[C@H](Cc2ccc(-c3ccccc3)cc2)NC1=O [Example 1060] ({CH2CO}-FYDWL[Bip]V[NMeA][NMeF]NLVSCA-NH2; thioether N-14) | 0.14 |
| CC(C)C[C@@H]1NC(=O)[C@H](Cc2c[nH]c3ccccc23)NC(=O)[C@H](CC(=O)O)NC(=O)[C@H](Cc2ccc(O)cc2)NC(=O)[C@H](C(C)C)NC(=O)CSC[C@@H](C(=O)NCC(N)=O)NC(=O)[C@H](CO)NC(=O)[C@H](C(C)C)NC(=O)[C@H](CC(C)C)NC(=O)[C@H](CC(N)=O)NC(=O)CN(C)C(=O)[C@H](C)N(C)C(=O)[C@H](C(C)C)NC(=O)[C@H](Cc2ccc(-c3ccccc3)cc2)NC1=O [Example 1154] ({CH2CO}-VYDWL[Bip]V[NMeA][Sar]NLVSCG-NH2; thioether N-14) | 0.79 |
| CC(C)C[C@@H]1NC(=O)CSC[C@@H](C(=O)NCC(N)=O)NC(=O)[C@H](CO)NC(=O)[C@H](C(C)C)NC(=O)[C@H](CC(C)C)NC(=O)[C@H](CCN)NC(=O)[C@H](Cc2ccccc2)N(C)C(=O)[C@H](C)N(C)C(=O)[C@H](CCCNC(=N)N)NC(=O)[C@H](Cc2ccc(-c3ccccc3)cc2)NC(=O)[C@H](C(C)C)NC(=O)[C@H](Cc2c[nH]c3ccccc23)NC(=O)[C@H](CC(=O)O)NC(=O)[C@H](Cc2ccc(O)cc2)NC1=O [Example 1289] ({CH2CO}-LYDWV[Bip]R[NMeA][NMeF][Dab]LVSCG-NH2; thioether N-14) | 0.17 |
| CC(C)C[C@@H]1NC(=O)[C@H](Cc2c[nH]c3ccccc23)NC(=O)[C@H](CC(=O)O)NC(=O)[C@H](Cc2ccc(O)cc2)NC(=O)[C@H](CC(N)=O)NC(=O)CSC[C@@H](C(=O)NCC(N)=O)NC(=O)[C@H]([C@@H](C)O)NC(=O)[C@H](C(C)C)NC(=O)[C@H](CC(C)C)NC(=O)[C@H](CC(N)=O)NC(=O)[C@H]2CCCN2C(=O)[C@H](CCCN)NC(=O)[C@H](C(C)C)NC(=O)[C@H](Cc2ccc(-c3ccccc3)cc2)NC1=O [Example 1424] ({CH2CO}-NYDWL[Bip]V[Orn][dP]NLVTCG-NH2; thioether N-14) | 0.66 |
